# Laboratory results: US9974721B2, “Cosmetic composition for lightening skin and hair” (Symrise AG, priority 2013, dated 2018)
# Several values for one entry are separate records, joined by “and”; a condition that tells them apart may be missing. Equal values may be shown once.
# Experiments:
# [1] = tested on: B16V mouse melanoma cells; test: Depigmentation effect on melanoma cell cultures (inhibition of pigmentation); assay type: cell-based; conditions: for IC50: Mus musculus, B16V cells, 0.3 mM tyrosine + 10 nM α-MSH, 96 h, absorption at 400 nm
# Experimental: (§1) B16V mouse melanoma cells are disseminated in a 96-well micro-titre plate in a concentration of 7.5×10^3 cells/well. After cultivation for 24 h at 37° C. and 5% CO2 in RPMI medium, enriched with 10% foetal calf serum, various concentrations of the test substances and 0.3 mM tyrosine and 10 nM α-MSH (α-melanocyte stimulating hormone) are added and incubated for a further 96 h. The maximum concentration of the test substances used corresponds to 0.1 times the value of the IC20 value of the cytotoxicity assay. Only tyrosine and α-MSH are added to the controls. After incubation, sodium hydroxide solution (final concentrations: 1 M) is added to the culture medium and the absorption (A) is measured after 3 h at 400 nm.
# (§2) The inhibition of pigmentation in the presence of the test compounds was calculated using the following equation: Inhibition of pigmentation (%)=100−[(Atest compound/Acontrol)×100] wherein Atest compound=absorption of the wells with test substance and with cells Acontrol=absorption of the wells without test substance, but with cells
# From the inhibition of pigmentation (%) in a series of dilutions of test compounds, the IC50 for each test compound is calculated. This is the concentration of a test compound at which pigmentation is inhibited by 50%.
# [2] = Incorporation into commonly used cosmetic formulations / crystallisation; assay type: physicochemical; conditions: for incorporation into commonly used cosmetic formulations: own experiments
# Excerpt: The analogues compound manool was already described as skin lightening active (JP 2006 137705 (Pola) and JP 06072855 (Pola)).
# [3] = biological target: T1, transient receptor potential cation channel-6 (TRPC6) (Homo sapiens, UniProt Q9Y210); conditions: WO 2013 021038 A1; cited from earlier work
# T1 sequence (Q9Y210 1-931): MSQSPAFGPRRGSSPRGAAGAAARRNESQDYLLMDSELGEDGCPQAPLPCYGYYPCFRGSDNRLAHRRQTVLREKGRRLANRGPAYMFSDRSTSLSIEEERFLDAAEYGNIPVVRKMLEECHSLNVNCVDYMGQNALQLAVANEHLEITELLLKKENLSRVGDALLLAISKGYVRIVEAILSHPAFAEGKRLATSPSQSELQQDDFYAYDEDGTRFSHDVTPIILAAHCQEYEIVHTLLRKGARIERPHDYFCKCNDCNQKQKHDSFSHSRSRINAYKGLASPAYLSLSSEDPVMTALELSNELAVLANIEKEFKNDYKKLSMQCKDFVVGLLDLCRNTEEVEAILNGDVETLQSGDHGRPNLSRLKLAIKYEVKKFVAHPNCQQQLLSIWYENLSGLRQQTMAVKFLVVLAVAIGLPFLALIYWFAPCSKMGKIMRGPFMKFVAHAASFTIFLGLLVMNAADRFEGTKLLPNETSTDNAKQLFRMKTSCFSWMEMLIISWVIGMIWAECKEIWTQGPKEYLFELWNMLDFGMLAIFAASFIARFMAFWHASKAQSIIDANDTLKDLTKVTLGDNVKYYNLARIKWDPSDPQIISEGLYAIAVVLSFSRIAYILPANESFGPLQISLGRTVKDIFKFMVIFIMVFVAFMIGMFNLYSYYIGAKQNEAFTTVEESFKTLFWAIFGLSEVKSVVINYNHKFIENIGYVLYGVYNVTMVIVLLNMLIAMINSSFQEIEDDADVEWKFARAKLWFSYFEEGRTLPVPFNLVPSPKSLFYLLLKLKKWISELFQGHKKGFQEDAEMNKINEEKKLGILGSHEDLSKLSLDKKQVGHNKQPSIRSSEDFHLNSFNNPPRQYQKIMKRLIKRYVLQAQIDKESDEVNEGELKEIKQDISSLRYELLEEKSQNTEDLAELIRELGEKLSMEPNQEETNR
# [4] = tested on: B16V mouse melanoma cells; test: Synergistic in vitro melanin inhibition (procedure of Example 1, Kull synergy index); assay type: cell-based; conditions: experiments 1 and 2, mixture 75% Larixol / 25% SymWhite 377
# Experimental: as §1, §2
# From the inhibition of pigmentation (%) in a series of dilutions of test compounds, the IC50 for each test compound is calculated. […]
# The Synergy Index (SI)^1 is calculated according to Kull's equation as follows: ^1 The calculation of the synergy index (SI-value) was carried out on the basis of following literature: D. C. […]
# [5] = tested on: Human skin; test: Depigmentation effect on ex vivo skin (melanin granules, Fontana-Masson, image analysis); assay type: cell-based; conditions: 0.1 wt.% in O/W emulsion, topical, 6 days
# Experimental: Human skin, originating from plastic surgery, was cut into 4×4×3 mm pieces (length×width×height) and placed in culture at the air-liquid interface on a sterilized cotton pad soaked with 5 ml of customized DMEM (Dulbecco's Modified Eagle Medium). Assays were started 24 h after sample acclimatization at 37° C., 5% CO2. O/W emulsions (as described in more detail below) without (=control) and with the test compounds, respectively, were applied topically and incubated for 6 days. Histological sections were prepared and melanin granules stained by Fontana-Masson technique. The granules were quantified by image analysis. The results are compiled in Tables 3.1 and 3.2.
# Phases A and B are heated to 70° C. separately. Pemulen TR1 as well as Ultrez-21 are dispersed in phase B when heated to 70° C. Phase B/C is added to phase A by mixing with an Ultra Turrax, followed by emulsifying. Phase D is slowly added to phase A/B/C using a paddle mixer and a pH 5.5-6 is adjusted. The formulation is cooled down while mixing with a paddle mixer. Phase E is added to the mixture of phase A-D.
# [6] = biological target: plasminogen activator inhibitor-1 (PAI-1) (Homo sapiens, UniProt P05121); conditions: US 2010 0137194; cited from earlier work
# Sequence of plasminogen activator inhibitor-1 (PAI-1) (P05121 24-402, species assumed): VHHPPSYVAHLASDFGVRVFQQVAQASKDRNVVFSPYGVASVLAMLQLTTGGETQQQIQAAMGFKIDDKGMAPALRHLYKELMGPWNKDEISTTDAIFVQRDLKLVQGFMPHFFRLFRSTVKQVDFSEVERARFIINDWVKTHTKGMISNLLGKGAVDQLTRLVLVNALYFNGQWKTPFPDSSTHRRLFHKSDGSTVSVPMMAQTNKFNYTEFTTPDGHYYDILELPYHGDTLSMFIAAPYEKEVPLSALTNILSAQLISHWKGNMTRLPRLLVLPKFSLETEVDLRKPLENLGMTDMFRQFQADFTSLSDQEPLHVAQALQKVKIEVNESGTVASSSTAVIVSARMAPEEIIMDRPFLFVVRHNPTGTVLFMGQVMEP
IC50 [1],Melanin inhibition IC50 [4],Compound,incorporation into commonly used cosmetic formulations [2],TRPC6 antagonism [3],other results
67 µM,,"OC[C@H]1O[C@@H](Oc2ccc(O)cc2)[C@H](O)[C@@H](O)[C@@H]1O [beta-Arbutin, reference compound]",,,
,0.000021% and 0.000034%,"CC(c1ccccc1)c1ccc(O)cc1O (stereo not shown) [SymWhite ® 377, 4-(1-phenylethyl)1,3-dihydroxybenzene]",,,
3.9 µM,0.00011%,"C=C[C@@](C)(O)CC[C@H]1C(=C)C[C@H](O)[C@H]2C(C)(C)CCC[C@]12C [Larixol, (1S,4S,4aR,8aS)-4-[(3S)-3-Hydroxy-3-methylpent-4-enyl]-4a,8,8-trimethyl-3-methylenedecahydronaphthalen-1-ol]",can easily be incorporated,TRPC6 antagonists,inhibitory activity towards melanin formation in melanocytes ([1]; statement in words): strong inhibitory activity; Melanin score vs. Control [5]: −41%; PAI-1 inhibition (screening) [6]: PAI-1 inhibitor

# More lines, now with the values behind:
Compound,IC50 [1],Melanin inhibition IC50 [4],incorporation into commonly used cosmetic formulations [2],TRPC6 antagonism [3],other results
C=C[C@](C)(O)CC[C@H]1C(=C)CC[C@H]2C(C)(C)CCC[C@]12C [manool],,,difficult to incorporate,,"crystallisation in formulation ([2]; formulation with manool, after a few days): crystallisation of manool after a few days"
C=CC(C)(CCC1C(=C)CC(OC(C)=O)C2C(C)(C)CCCC12C)OC(C)=O (stereo not shown) [larixyl diacetate],,,,TRPC6 antagonists,
C=CC(C)(O)CCC1C(=C)CC(OC(C)=O)C2C(C)(C)CCCC12C (stereo not shown) [larixyl acetate],,,,TRPC6 antagonists,
